Reference: PubChem BioAssay AID2060627 (Molecular Pharmacology Branch, DTP, NCI, 2025)
Values joined by “and” are separate entries in the source; they are usually repeats but may differ in a detail not shown here. Identical values can stand only once. Blank lines part the entries; values can stand above or below the compound they belong to.

Test system: 156681-154-R-J1-PDC complex spheroid viability
Test: Anticancer human tumor 156681-154-R-J1-PDC patient-derived melanoma cell line growth inhibition [CLK]
Settings: for viability, T/C: stronger effect = lower value
Procedure, shortened: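 Patient-derived tumor cells grown as complex spheroids with HUVEC endothelial cells and mesenchymal stem cells, treated with drug combinations. Concentrations descend in half-log steps from near clinical Cmax, or from 10 microM if Cmax unknown.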

[1] = curve of first compound, second compound 0.0316 µM
[2] = curve of first compound, second compound 0.1 µM
[3] = curve of first compound, second compound 0.316 µM
[4] = curve of first compound, second compound 1 µM
[5] = curve of first compound, second compound 3.16 µM
[6] = curve of first compound, second compound 10 µM
[7] = second compound 0.0316 µM, first compound 0.0316 µM
[8] = second compound 0.0316 µM, first compound 0.1 µM
[9] = second compound 0.0316 µM, first compound 0.316 µM
[10] = second compound 0.0316 µM, first compound 1 µM
[11] = second compound 0.0316 µM, first compound 3.16 µM
[12] = second compound 0.0316 µM, first compound 10 µM
[13] = second compound 0.1 µM, first compound 0.0316 µM
[14] = second compound 0.1 µM, first compound 0.1 µM
[15] = second compound 0.1 µM, first compound 0.316 µM
[16] = second compound 0.1 µM, first compound 1 µM
[17] = second compound 0.1 µM, first compound 3.16 µM
[18] = second compound 0.1 µM, first compound 10 µM
[19] = second compound 0.316 µM, first compound 0.0316 µM
[20] = second compound 0.316 µM, first compound 0.1 µM
[21] = second compound 0.316 µM, first compound 0.316 µM
[22] = second compound 0.316 µM, first compound 1 µM
[23] = second compound 0.316 µM, first compound 3.16 µM
[24] = second compound 0.316 µM, first compound 10 µM
[25] = second compound 1 µM, first compound 0.0316 µM
[26] = second compound 1 µM, first compound 0.1 µM
[27] = second compound 1 µM, first compound 0.316 µM
[28] = second compound 1 µM, first compound 1 µM
[29] = second compound 1 µM, first compound 3.16 µM
[30] = second compound 1 µM, first compound 10 µM
[31] = second compound 3.16 µM, first compound 0.0316 µM
[32] = second compound 3.16 µM, first compound 0.1 µM
[33] = second compound 3.16 µM, first compound 0.316 µM
[34] = second compound 3.16 µM, first compound 1 µM
[35] = second compound 3.16 µM, first compound 3.16 µM
[36] = second compound 3.16 µM, first compound 10 µM
[37] = second compound 10 µM, first compound 0.0316 µM
[38] = second compound 10 µM, first compound 0.1 µM
[39] = second compound 10 µM, first compound 0.316 µM
[40] = second compound 10 µM, first compound 1 µM
[41] = second compound 10 µM, first compound 3.16 µM
[42] = second compound 10 µM, first compound 10 µM
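Also: spheroids exposed to the agents for seven days.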
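For viability, T/C in this document: 100% = DMSO vehicle control viability.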

IC50 (curve of compound): > 10000 nM
SMILES: C=CC(=O)N1CCN(c2nc(=O)n(-c3c(C)ccnc3C(C)C)c3nc(-c4c(O)cccc4F)c(F)cc23)C(C)C1 (configuration not stated)
viability, T/C (compound 0.0316 µM): 99.5% and 84.9% | viability, T/C (compound 0.1 µM): 91.5% and 76.2% | viability, T/C (compound 0.316 µM): 101% and 112% | viability, T/C (compound 1 µM): 89.7% and 114% | viability, T/C (compound 3.16 µM): 116% and 106% | viability, T/C (compound 10 µM): 80.5% and 108%

IC50 (curve of compound): 460 nM and 305 nM
SMILES: CC(Nc1ccc2c(c1)OCCn1cc(N3C(=O)OCC3C(F)F)nc1-2)C(N)=O (configuration not stated)
viability, T/C (compound 0.0316 µM): 67.3% and 70.1% | viability, T/C (compound 0.1 µM): 65.7% and 55.4% | viability, T/C (compound 0.316 µM): 53.8% and 52.7% | viability, T/C (compound 1 µM): 39.9% and 37.6% | viability, T/C (compound 3.16 µM): 32.3% and 33.9% | viability, T/C (compound 10 µM): 23.5% and 19.5%

Continued, compound first:

SMILES: CC(=O)O[C@H]1C(=O)[C@@]2(C)[C@H]([C@H](OC(=O)c3ccccc3)[C@]3(O)C[C@H](OC(=O)[C@H](O)[C@@H](NC(=O)c4ccccc4)c4ccccc4)C(C)=C1C3(C)C)[C@]1(OC(C)=O)CO[C@@H]1C[C@@H]2O + CN1CCN(c2cc(C(=O)Nc3cc4cc(-c5cnn(C)c5)ccc4cn3)ccn2)CC1
IC50 [1]: < 31.6 nM | IC50 [2]: < 31.6 nM | IC50 [3]: < 31.6 nM | IC50 [4]: < 31.6 nM | IC50 [5]: < 31.6 nM | IC50 [6]: < 31.6 nM | viability, T/C [7]: 19.4% | viability, T/C [8]: 13.1% | viability, T/C [9]: 18.9% | viability, T/C [10]: 16.5% | viability, T/C [11]: 23.6% | viability, T/C [12]: 28.9% | viability, T/C [13]: 17.6% | viability, T/C [14]: 14.6% | viability, T/C [15]: 15.4% | viability, T/C [16]: 12.5% | viability, T/C [17]: 16.3% | viability, T/C [18]: 24.3% | viability, T/C [19]: 15.1% | viability, T/C [20]: 21.1% | viability, T/C [21]: 13.8% | viability, T/C [22]: 13% | viability, T/C [23]: 14.8% | viability, T/C [24]: 16.8% | viability, T/C [25]: 0.09% | viability, T/C [26]: 0.13% | viability, T/C [27]: 0.13% | viability, T/C [28]: 0.34% | viability, T/C [29]: 0.12% | viability, T/C [30]: 0.13% | viability, T/C [31]: 0.09% | viability, T/C [32]: 0.74% | viability, T/C [33]: 0.35% | viability, T/C [34]: 0.08% | viability, T/C [35]: 0.23% | viability, T/C [36]: 0.22% | viability, T/C [37]: 0.09% | viability, T/C [38]: 0.7% | viability, T/C [39]: 0.46% | viability, T/C [40]: 0.52% | viability, T/C [41]: 0.61% | viability, T/C [42]: 0.3%

SMILES: CC1(C)CCC(CN2CCN(c3ccc(C(=O)NS(=O)(=O)c4ccc(NCC5CCOCC5)c([N+](=O)[O-])c4)c(Oc4cnc5[nH]ccc5c4)c3)CC2)=C(c2ccc(Cl)cc2)C1 + CN1CCN(c2cc(C(=O)Nc3cc4cc(-c5cnn(C)c5)ccc4cn3)ccn2)CC1
IC50 [1]: 4990 nM | IC50 [2]: 4370 nM | IC50 [3]: < 31.6 nM | IC50 [4]: < 31.6 nM | IC50 [5]: < 31.6 nM | IC50 [6]: < 31.6 nM | viability, T/C [7]: 99.7% | viability, T/C [8]: 116% | viability, T/C [9]: 90.8% | viability, T/C [10]: 103% | viability, T/C [11]: 81.6% | viability, T/C [12]: 1.68% | viability, T/C [13]: 97.8% | viability, T/C [14]: 83.3% | viability, T/C [15]: 86% | viability, T/C [16]: 88.8% | viability, T/C [17]: 69.2% | viability, T/C [18]: 0.79% | viability, T/C [19]: 18.2% | viability, T/C [20]: 19.7% | viability, T/C [21]: 24.4% | viability, T/C [22]: 17.9% | viability, T/C [23]: 8.72% | viability, T/C [24]: 0.28% | viability, T/C [25]: 0.22% | viability, T/C [26]: 0.91% | viability, T/C [27]: 0.19% | viability, T/C [28]: 0.18% | viability, T/C [29]: 2.05% | viability, T/C [30]: 0.07% | viability, T/C [31]: 2.04% | viability, T/C [32]: 0.47% | viability, T/C [33]: 0.27% | viability, T/C [34]: 0.09% | viability, T/C [35]: 3.38% | viability, T/C [36]: 0.4% | viability, T/C [37]: 0.1% | viability, T/C [38]: 3.06% | viability, T/C [39]: 2.9% | viability, T/C [40]: 0.17% | viability, T/C [41]: 0.91% | viability, T/C [42]: 0.56%

SMILES: O=C(c1cc(Cc2n[nH]c(=O)c3ccccc23)ccc1F)N1CCN(C(=O)C2CC2)CC1
viability, T/C (compound 0.0316 µM): 92.3% and 97.7% | viability, T/C (compound 0.1 µM): 72.3% and 78.8% | viability, T/C (compound 0.316 µM): 72% and 85.3% | viability, T/C (compound 1 µM): 83.4% and 78.3% | viability, T/C (compound 3.16 µM): 72.3% and 90.1% | viability, T/C (compound 10 µM): 56.2% and 57.6% | IC50 (curve of compound): > 10000 nM

SMILES: COc1cccc2c1C(=O)c1c(O)c3c(c(O)c1C2=O)CC(O)(C(=O)CO)CC3OC1CC(N)C(O)C(C)O1 (configuration not stated)
viability, T/C (compound 0.0316 µM): 37% and 29.8% | viability, T/C (compound 0.1 µM): 25.2% and 19.9% | viability, T/C (compound 0.316 µM): 9.16% and 2.97% | viability, T/C (compound 1 µM): 0.48% and 0.17% | viability, T/C (compound 3.16 µM): 1.37% and 0.12% | viability, T/C (compound 10 µM): 2.47% and 0.67% | IC50 (curve of compound): < 31.6 nM
